In PMC8086025, “A benzopyran with antiarrhythmic activity is an inhibitor of Kir3.1-containing potassium channels” (The Journal of Biological Chemistry, 2021):
Like-named read-outs stand apart in the source and are kept apart here.

How the values were obtained:
NaV1.2 and NaVβ1 = target: T1, NaV1.2 and NaVβ1 (Rattus norvegicus, UniProt P04775); assay: NaV1.2 currents in Xenopus oocytes; format: cell-based
T1 construct: expressed in transfected cells; host or cells: Xenopus oocytes

Nav1.5 = Nav1.5 (Homo sapiens, UniProt Q14524); assay: Cloned cardiac ion channel manual patch clamp, Nav1.5; format: cell-based; conditions: 1Hz; MPC (manual patch clamp)
Procedure: (§1) For the data shown in Table S6, HEK293 cells expressing Kir3.1/4, Kir6.2/SUR2A (provided by Dr Andrew Tinker), Kir3.4, Kir2.1, and CHO cell lines stably expressing hERG KV1.5, KV4.3, NaV1.5 were maintained in media containing 10% FCS and appropriate selection antibiotic. Cells were grown either in suspension or in T-flasks and routinely passaged. Cells for patch clamping experiments were plated onto glass cover slips prior to use. Cells for automated patch clamping experiments were freshly prepared on each experimental day.
(§2) Standard giga-seal whole-cell patch-clamp techniques were performed at room temperature using glass pipettes (2–5 MΩ). HEKA EPC9/10 amplifiers and Pulse software were used for data acquisition. Series resistance was compensated by >70%. Experimental solutions are given under Supporting information. […]
(§3) Ionic current recordings were analyzed using HEKA software. […]
(§4) Inhibition of current (or leak-subtracted current) was calculated from steady-state current recorded in the absence (IControl) and presence of test-article (IIntervention). […]
(§5) Concentration-response data were fitted with a sigmoidal function of the form above, where YMin and YMax represent maximum and minimum current inhibition which were constrained to 100 and 0 respectively and x is the Log[DRUG (M)] based on GraphPad Prism analysis. % inhibition was calculated as in Equation 1. […]

[1] = tested on: Kir2.1, Kir2.3, Kir3.1∗, Kir3.2∗, Kir3.4∗, Kir3.1∗/Kir3.2 and Kir3.1∗/Kir3.4; assay: TEVC in Xenopus oocytes, selectivity over other Kir channels; format: cell-based; conditions: 1 μM
Kir3.1(D173A) mutant = target: T2, Kir3.1(D173A) mutant (Homo sapiens, UniProt P48544+P48549, D173A); assay: TEVC in Xenopus oocytes, Kir3.1(D173A)/4; format: cell-based; conditions: 1 μM
T2 construct: expressed in transfected cells; host or cells: Xenopus laevis oocytes (cRNA injection)
Procedure: X. laevis oocytes were isolated and microinjected as previously described ([6]). Human Kir3.1, mouse Kir3.2, and human Kir3.4 DNA constructs were used for electrophysiology experiments. All cRNA constructs were injected in the amount of 2 ng per oocyte. Injected oocytes were incubated for 2 to 3 days at 18 °C to allow for expression. Whole-cell oocyte currents were then measured using a GeneClamp 500 amplifier (Axon Instruments). Microelectrodes had resistances of 0.5 to 1 megohm using a 3M KCl solution in 1.4% agarose. Oocytes were perfused with a low K^+ (LK) solution ND96 (2 mM KCl, 96 mM NaCl, 1 mM MgCl2, 1.8 mM CaCl2, 5 mM HEPES-Na) to establish a baseline for the recordings. Basal current was measured in a high potassium (HK) solution ND96K (96 mM KCl, 10 mM HEPES-K, 1 mM MgCl2, 1.8 mM CaCl2). To block the current, the oocyte chamber was perfused with 4 mM BaCl2 in ND96K. Only the Barium-sensitive current was used for statistical analysis. To measure the inhibitory activity of the channels, 1 μM BP-G1 in ND96K (HK) was used. Typically, oocytes were held at 0 mV (EK) and the current was monitored constantly using a ramp protocol with a command potential from −80 to +80 mV. Current amplitude was measured at the end of a 1 s sweep. All currents were analyzed when they reached steady state. Error bars in the figures represent SD (N > 4).

Kv1.5 = Kv1.5 (Homo sapiens, UniProt P22460); assay: Cloned cardiac ion channel manual patch clamp, Kv1.5; format: cell-based; conditions: MPC (manual patch clamp)
Procedure: as §1, §2, §3, §4, §5

Nav = assay: Radioligand binding, rat cerebral cortex
Kir6.2/SUR2A = target: T3, Kir6.2/SUR2A (Homo sapiens, UniProt O60706+Q14654); assay: Cloned cardiac ion channel patch clamp, Kir6.2/SUR2A; format: cell-based
T3 construct: Andrew Tinker, UCL; host or cells: HEK293

[2] = Rat PK, IV/PO cross over and brain penetration; format: in vivo

T1 sequence (P04775 whole entry): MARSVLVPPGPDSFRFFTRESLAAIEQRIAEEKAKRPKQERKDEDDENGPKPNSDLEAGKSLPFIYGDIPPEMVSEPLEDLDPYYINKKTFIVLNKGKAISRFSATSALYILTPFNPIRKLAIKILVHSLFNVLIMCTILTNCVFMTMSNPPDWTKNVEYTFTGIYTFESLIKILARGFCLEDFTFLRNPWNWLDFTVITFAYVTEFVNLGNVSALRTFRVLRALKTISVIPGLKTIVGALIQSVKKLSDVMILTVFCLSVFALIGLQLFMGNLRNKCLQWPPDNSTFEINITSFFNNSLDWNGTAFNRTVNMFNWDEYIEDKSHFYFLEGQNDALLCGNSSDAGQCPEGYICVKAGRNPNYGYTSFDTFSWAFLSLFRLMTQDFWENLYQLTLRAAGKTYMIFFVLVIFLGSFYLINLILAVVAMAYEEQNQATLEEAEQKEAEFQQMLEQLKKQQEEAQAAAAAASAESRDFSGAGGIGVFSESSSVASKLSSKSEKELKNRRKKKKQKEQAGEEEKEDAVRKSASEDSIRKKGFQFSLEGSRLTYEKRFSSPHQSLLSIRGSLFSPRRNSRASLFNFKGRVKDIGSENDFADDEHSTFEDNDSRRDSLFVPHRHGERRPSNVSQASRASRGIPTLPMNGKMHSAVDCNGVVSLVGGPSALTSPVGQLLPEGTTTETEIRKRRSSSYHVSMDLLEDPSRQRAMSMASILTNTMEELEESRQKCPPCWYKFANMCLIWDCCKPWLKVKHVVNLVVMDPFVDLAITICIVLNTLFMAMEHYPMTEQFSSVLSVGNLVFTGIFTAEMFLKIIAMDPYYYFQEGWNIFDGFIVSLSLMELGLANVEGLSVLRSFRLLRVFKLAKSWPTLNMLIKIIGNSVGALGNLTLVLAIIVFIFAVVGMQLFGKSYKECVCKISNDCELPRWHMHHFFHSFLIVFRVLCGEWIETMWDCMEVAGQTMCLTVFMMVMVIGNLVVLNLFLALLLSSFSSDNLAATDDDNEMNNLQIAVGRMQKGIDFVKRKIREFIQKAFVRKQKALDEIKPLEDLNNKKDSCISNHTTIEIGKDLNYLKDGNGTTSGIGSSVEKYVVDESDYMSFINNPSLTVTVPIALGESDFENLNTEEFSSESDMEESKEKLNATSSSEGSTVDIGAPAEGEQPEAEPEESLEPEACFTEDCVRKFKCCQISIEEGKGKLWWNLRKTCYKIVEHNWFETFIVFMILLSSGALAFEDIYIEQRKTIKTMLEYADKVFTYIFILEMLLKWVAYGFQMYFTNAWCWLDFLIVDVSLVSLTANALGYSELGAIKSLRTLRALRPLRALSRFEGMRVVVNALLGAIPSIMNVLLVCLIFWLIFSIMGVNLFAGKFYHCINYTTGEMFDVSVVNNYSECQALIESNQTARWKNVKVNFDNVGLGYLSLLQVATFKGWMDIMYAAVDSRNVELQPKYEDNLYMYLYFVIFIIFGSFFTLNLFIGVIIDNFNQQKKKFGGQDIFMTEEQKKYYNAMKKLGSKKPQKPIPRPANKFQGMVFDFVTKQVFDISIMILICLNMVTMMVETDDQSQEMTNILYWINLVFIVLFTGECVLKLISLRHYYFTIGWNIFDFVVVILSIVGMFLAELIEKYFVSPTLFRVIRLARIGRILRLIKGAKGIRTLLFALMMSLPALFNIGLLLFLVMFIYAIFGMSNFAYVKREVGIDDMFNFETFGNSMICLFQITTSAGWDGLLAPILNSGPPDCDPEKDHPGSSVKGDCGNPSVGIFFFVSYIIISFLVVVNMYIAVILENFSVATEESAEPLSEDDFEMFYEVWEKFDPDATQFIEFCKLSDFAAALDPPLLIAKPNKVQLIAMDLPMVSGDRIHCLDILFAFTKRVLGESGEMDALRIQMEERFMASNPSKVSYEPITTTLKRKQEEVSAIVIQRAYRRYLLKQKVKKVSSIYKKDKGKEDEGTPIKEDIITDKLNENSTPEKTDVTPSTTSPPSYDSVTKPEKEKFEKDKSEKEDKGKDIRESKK
T1 sequence (Q00954 19-218 partner): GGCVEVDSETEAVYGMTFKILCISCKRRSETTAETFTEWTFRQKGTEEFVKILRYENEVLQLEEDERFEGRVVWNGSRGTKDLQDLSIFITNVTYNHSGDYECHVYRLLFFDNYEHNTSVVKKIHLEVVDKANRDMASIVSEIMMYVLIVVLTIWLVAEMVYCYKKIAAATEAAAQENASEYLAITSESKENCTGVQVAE
Kv1.5, sequence (P22460 whole entry): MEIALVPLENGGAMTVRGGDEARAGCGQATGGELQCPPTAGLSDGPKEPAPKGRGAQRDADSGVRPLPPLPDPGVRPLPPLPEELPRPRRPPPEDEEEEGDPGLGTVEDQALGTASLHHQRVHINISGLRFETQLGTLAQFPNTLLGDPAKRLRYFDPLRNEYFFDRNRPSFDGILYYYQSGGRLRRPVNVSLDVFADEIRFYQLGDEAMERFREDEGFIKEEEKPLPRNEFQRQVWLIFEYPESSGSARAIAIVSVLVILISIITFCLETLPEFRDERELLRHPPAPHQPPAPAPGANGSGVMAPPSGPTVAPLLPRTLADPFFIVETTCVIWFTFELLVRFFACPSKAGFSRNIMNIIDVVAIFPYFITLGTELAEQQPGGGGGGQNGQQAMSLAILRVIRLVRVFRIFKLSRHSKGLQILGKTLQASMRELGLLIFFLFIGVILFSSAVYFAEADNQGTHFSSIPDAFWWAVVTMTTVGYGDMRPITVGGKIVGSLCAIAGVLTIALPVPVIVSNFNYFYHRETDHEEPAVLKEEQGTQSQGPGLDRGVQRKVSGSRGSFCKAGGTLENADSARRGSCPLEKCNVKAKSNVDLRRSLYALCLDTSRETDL
T3 sequence (Q14654 whole entry): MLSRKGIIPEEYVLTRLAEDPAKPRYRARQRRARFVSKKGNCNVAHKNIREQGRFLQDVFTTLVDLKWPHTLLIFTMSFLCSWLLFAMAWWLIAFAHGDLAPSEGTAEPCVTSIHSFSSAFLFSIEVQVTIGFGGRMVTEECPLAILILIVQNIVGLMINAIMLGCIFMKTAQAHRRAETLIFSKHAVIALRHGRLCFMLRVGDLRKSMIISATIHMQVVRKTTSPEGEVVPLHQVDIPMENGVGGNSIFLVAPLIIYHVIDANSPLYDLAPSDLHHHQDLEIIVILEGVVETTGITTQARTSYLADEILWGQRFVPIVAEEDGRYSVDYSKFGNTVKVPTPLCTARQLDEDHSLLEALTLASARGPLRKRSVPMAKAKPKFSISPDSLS
T3 sequence (O60706 whole entry): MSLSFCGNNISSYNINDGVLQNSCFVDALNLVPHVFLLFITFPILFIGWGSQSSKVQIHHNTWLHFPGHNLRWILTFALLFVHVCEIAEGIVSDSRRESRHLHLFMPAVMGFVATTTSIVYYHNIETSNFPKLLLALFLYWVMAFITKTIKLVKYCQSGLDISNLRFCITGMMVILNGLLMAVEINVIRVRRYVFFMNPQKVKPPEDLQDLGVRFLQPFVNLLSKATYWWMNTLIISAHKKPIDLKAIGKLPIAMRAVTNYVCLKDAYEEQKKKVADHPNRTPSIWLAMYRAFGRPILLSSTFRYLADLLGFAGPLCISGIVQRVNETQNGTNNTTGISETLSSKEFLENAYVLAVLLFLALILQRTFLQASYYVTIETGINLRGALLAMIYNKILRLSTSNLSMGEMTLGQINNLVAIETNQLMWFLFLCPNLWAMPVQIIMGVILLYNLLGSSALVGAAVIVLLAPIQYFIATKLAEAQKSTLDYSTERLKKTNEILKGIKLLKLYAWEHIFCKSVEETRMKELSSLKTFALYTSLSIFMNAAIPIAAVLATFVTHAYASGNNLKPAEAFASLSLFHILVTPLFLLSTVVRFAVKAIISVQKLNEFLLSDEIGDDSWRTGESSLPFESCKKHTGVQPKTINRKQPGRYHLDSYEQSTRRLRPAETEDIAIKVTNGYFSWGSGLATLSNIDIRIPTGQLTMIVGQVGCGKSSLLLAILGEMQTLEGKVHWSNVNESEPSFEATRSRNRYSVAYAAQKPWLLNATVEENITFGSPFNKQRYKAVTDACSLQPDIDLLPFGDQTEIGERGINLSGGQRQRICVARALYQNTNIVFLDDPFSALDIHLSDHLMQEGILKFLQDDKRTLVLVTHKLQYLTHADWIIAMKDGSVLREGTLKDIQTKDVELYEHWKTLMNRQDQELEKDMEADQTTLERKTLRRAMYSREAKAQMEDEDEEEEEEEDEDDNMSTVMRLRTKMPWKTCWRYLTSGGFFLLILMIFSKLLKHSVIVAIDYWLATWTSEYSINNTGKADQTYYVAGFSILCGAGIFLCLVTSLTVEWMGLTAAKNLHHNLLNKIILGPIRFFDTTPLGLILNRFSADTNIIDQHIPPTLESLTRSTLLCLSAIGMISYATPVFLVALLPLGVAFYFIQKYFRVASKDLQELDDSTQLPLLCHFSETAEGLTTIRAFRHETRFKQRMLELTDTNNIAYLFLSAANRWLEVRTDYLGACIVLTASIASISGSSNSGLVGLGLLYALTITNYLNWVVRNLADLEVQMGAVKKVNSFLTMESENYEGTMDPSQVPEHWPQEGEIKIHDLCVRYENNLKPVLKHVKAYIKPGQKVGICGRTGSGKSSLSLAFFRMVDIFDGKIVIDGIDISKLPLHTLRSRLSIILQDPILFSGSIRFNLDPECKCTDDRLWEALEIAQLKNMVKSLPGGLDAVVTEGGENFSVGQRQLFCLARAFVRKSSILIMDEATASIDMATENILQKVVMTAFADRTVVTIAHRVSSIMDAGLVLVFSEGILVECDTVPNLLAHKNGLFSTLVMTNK

Question: For `Cc1cc(CO)nc2cc3c(cc12)OC(C)(C)[C@H](O)[C@H]3NCCc1ccccc1` [BP-G1, (3R,4S)-7-(hydroxymethyl)-2,2,9-trimethyl-4-(2-phenylethylamino)-3,4-dihydropyrano[2,3-g]quinolin-3-ol], which “block of TTX-sensitive NaV1.2 currents” value (NaV1.2 and NaVβ1; 10 µM) is on record?
Answer: did not block

Question: What about the “average NaV1.2 current” value (NaV1.2 and NaVβ1; 10 μM BP-G1, vehicle -2.16 ± 0.36 μA, mean ± SD, N=10) of the same compound?
Answer: -2.17 μA

Question: What about the “IC50, NaV1.2” value (NaV1.2 and NaVβ1; Table S1) of the same compound?
Answer: > 10 µM

Question: What about the IC50 (Nav1.5) of the same compound?
Answer: > 10 µM

Question: What about the “selectivity for Kir3.1-containing heteromers over other Kir channels” value [1] of the same compound?
Answer: strong inhibitory selectivity

Question: What about the “current block, Kir3.1(D173A)” value (Kir3.1(D173A) mutant) of the same compound?
Answer: ~25%

Question: What about the IC50 (Kv1.5) of the same compound?
Answer: 16.3 µM

Question: And the “% Specific Binding at 10 µM” value (Nav)?
Answer: 65.1%

Question: And the “% Specific Binding at 10 µM” value (Nav; listed as Benzopyran-G1)?
Answer: 65.100%

Question: What about the IC50 (Kir6.2/SUR2A) of the same compound?
Answer: > 10 µM

Question: And the Co ([2]; 1mg/kg iv.)?
Answer: 3941 ng/mL

Question: And the CL ([2]; 5mg/kg po.)?
Answer: 3.3 mL/min/kg

Question: What about the Kp ([2]; rat, brain and plasma, 5mg/kg po., read-out: CNS Penetration (B:P)) of the same compound?
Answer: 0.2

Question: What about the Vd ([2]; rat, in vivo, 1mg/kg iv.) of the same compound?
Answer: 1 L/kg

Question: And the clearance ([2]; rat, in vivo, 1mg/kg iv.)?
Answer: 3.39 mL/min/kg

Question: What about the bioavailability ([2]; rat, in vivo, 1mg/kg iv. / 5mg/kg po., read-out: Oral bioavailability F%) of the same compound?
Answer: 32%

Question: What about the AUC(0-inf) ([2]; rat, in vivo, 1mg/kg iv., read-out: Rat iv. AUC∞) of the same compound?
Answer: 4950 ng·h/mL

Question: What about the Cmax ([2]; rat, in vivo, 5mg/kg po.) of the same compound?
Answer: 1190 ng/mL

Question: And the AUC(0-t) ([2]; rat, in vivo, 5mg/kg po., read-out: Rat p.o. AUCt)?
Answer: 6420 ng·h/mL

Question: And the AUC(0-inf) ([2]; rat, in vivo, 5mg/kg po., read-out: Rat p.o. AUC∞)?
Answer: 16800 ng·h/mL

Question: And the half-life ([2]; rat, in vivo, listed under 5mg/kg po.)?
Answer: 12.2 h
